Experimental findings from patent publication US7312248B2, “Control of parasites in animals by the use of novel trifluoromethanesulfonanilide oxime ether derivatives” (Schering-Plough Animal Health Corporation, priority 2004, dated 2007) are described below.

For the assay, the system named is cat flea (Ctenocephalides felis). Nature of the assay: whole plant or invertebrate. It is filed as in vivo. The note with it: Ctenocephalides felis. The method, then:
b) Ctenocephalides felis Adulticide Assay: C. felis Single Dose Screen
Mortality of fleas was the primary endpoint in the assay. Fleas were considered dead if they didn't move or were on their sides and unable to walk or right themselves. […] The concentration chosen (1.26 μg/cm^2) was higher than that known to kill 90% of cat fleas (LC90) using the reference compound, permethrin.
The test species was the cat flea (Ctenocephalides felis). The strain used was obtained from external suppliers as pupae and held in the laboratory under testing conditions until the adults had emerged. Fifteen (15) fleas were used in a minimum of four replicates against a single concentration level (approximately 60 fleas). The insects were selected to be in the adult life stage, aged between 3 and 7 days post emergence.
The compounds to be tested were supplied as solids and were prepared in acetone as described below prior to testing. Samples were stored in a refrigerator (5±1° C.) unless otherwise specified.
During the mortality testing, the temperature was maintained at 25±1° C. Humidity was maintained at 75±5%. The base (area=159 mm^2) of a 100 mL glass Erlenmeyer (conical) flask provided the treatment surface. Flasks were pretreated with Coatasil™ glass treatment to maximise bio-availability of test compounds by preventing them from binding to glass the surface. The base of the 100 mL Erlenmeyer flask was treated with 0.5 mL of test sample in acetone and gently swirled. This volume was sufficient to cover the base of the flask. Flasks were left to dry for 24 hours before flea exposure.
Adult cat fleas were placed into a sorting chamber, which allowed fleas to jump into the Erlenmeyer flasks. Fifteen (15) adult cat fleas were collected in each flask. The top of the flasks were then covered in Parafilm™ and small holes were made to allow gas exchange. A 0.5 mL volume of acetone as a solvent control was applied to the base of an Erlenmeyer flask and the testing proceeded in the same manner described above. Cat fleas in the treatment containers were held under testing conditions for 8, 24 and/or 48 hours. Mortality was recorded at 8, 24, 8 and 24, or 24 and 48 hours. Pooled 8, 24, 8 and 24, and 24 and 48 hour mortality data were converted to percentages and are summarized by Tables 14, 14A and 14B, below.

[1] abbreviates: 24 h, read-out: C. felis Mortality (%) 24 h, 24 h, Laboratory 2 B data.
Setting [2] is: 24 h, read-out: C. felis Mortality (%) 24 h, 24 h, Laboratory 1 A data.

Each structure is given as a SMILES string. Read-outs that look alike come from different tables or passages of the source.

Take `COCCON=C(c1ccccc1)c1cc(Cl)ccc1NS(=O)(=O)C(F)(F)F` (racemic) [Compound 234, N-{4-chloro-[(2-methoxyethoxyimino)phenylmethyl]phenyl}trifluoromethanesulfonamide]: the mortality at 1.26 µg/cm2, 1.26 µg/cm2 is 64% under setting [1] and 100% (48 h, read-out: C. felis Mortality (%) 48 h, 48 h, Laboratory 2 B data). For the molecule `C/C(=N\OCC=C(Cl)Cl)c1ccccc1NS(=O)(=O)C(F)(F)F` [Compound 25], the mortality at 1.26 µg/cm2, 1.26 µg/cm2 under setting [2] turned out to be 100%. On to `C/C(=N\OCC#N)c1ccccc1NS(=O)(=O)C(F)(F)F` [Compound 27], for which the mortality at 1.26 µg/cm2, 1.26 µg/cm2 under setting [2] came out at 95%.

For `CCO/N=C(\C)c1ccccc1NS(=O)(=O)C(F)(F)F` [Compound 29], under setting [2], the mortality at 1.26 µg/cm2, 1.26 µg/cm2 was determined as 92%.

Turning to `CO/N=C(\c1ccccc1)c1ccccc1NS(=O)(=O)C(F)(F)F` [Compound 30], under setting [2], the mortality at 1.26 µg/cm2, 1.26 µg/cm2 turned out to be 62%. For `CCO/N=C(\c1ccccc1)c1ccccc1NS(=O)(=O)C(F)(F)F` [Compound 31], the mortality at 1.26 µg/cm2, 1.26 µg/cm2 under setting [2] was 74%. `CO/N=C(\C)c1cc2c(cc1NS(=O)(=O)C(F)(F)F)OCO2` [Compound 32]: under setting [2], the mortality at 1.26 µg/cm2, 1.26 µg/cm2 is 100%. On the same count and under the same terms, to `CC/C(=N\OC)c1cc(Cl)ccc1NS(=O)(=O)C(F)(F)F` [Compound 34] belongs 100%; to `CO/N=C(\C)c1cc(Cl)ccc1NS(=O)(=O)C(F)(F)F` [Compound 35], 100%. The same measure, in the same setting: in the case of `CCO/N=C(\C)c1cc(Cl)ccc1NS(=O)(=O)C(F)(F)F` [Compound 36] it was 100%. For the molecule `CCO/N=C(\CC)c1cc(Cl)ccc1NS(=O)(=O)C(F)(F)F` [Compound 37], the mortality at 1.26 µg/cm2, 1.26 µg/cm2 under setting [2] is 29%. Take `CO/N=C(\C)c1cccc(OC)c1NS(=O)(=O)C(F)(F)F` [Compound 40]: the mortality at 1.26 µg/cm2, 1.26 µg/cm2 under setting [2] amounted to 45%. Turning to `CCO/N=C(\C)c1cccc(OC)c1NS(=O)(=O)C(F)(F)F` [Compound 41], the mortality at 1.26 µg/cm2, 1.26 µg/cm2 under setting [2] stood at 45%. The same measure, in the same setting: to `CO/N=C(\C)c1cccc(C)c1NS(=O)(=O)C(F)(F)F` [Compound 42] belongs 72%. Same read-out and setting: in the case of `CCO/N=C(\C)c1cccc(C)c1NS(=O)(=O)C(F)(F)F` [Compound 43] it was 86%; in that of `C/C(=N\OCc1ccccn1)c1cc(Cl)ccc1NS(=O)(=O)C(F)(F)F` [Compound 48], 94%; in that of `CCO/N=C(\C)c1ccc(F)cc1NS(=O)(=O)C(F)(F)F` [Compound 51], 100%. Consider `CO/N=C(\C)c1cc(Br)ccc1NS(=O)(=O)C(F)(F)F` [Compound 52], for which the mortality at 1.26 µg/cm2, 1.26 µg/cm2 under setting [2] was 100%. Turning to `CCO/N=C(\C)c1cc(Br)ccc1NS(=O)(=O)C(F)(F)F` [Compound 53], the mortality at 1.26 µg/cm2, 1.26 µg/cm2 under setting [2] was found to be 100%.

As for `CSCO/N=C(\C)c1cccc(C)c1NS(=O)(=O)C(F)(F)F` [Compound 54], under setting [2], the mortality at 1.26 µg/cm2, 1.26 µg/cm2 came to 93%. Same read-out and setting: to `CSCO/N=C(\C)c1ccccc1NS(=O)(=O)C(F)(F)F` [Compound 56] belongs 100%; to `C/C(=N\OC(C)C)c1cccc(C)c1NS(=O)(=O)C(F)(F)F` [Compound 57], 77%; to `CCC(C)O/N=C(\C)c1cccc(C)c1NS(=O)(=O)C(F)(F)F` (stereo not drawn) [Compound 58], 25%. On to `CSCO/N=C(\C)c1cc(Cl)ccc1NS(=O)(=O)C(F)(F)F` [Compound 124], for which, under setting [2], the mortality at 1.26 µg/cm2, 1.26 µg/cm2 was determined as 100%. `C/C(=N\Oc1ccc(C)cc1)c1cc(Cl)ccc1NS(=O)(=O)C(F)(F)F` [Compound 141]: the mortality at 1.26 µg/cm2, 1.26 µg/cm2 under setting [2] was found to be 41%. Take `CC/C(=N\Oc1ccc(C)cc1)c1cc(Cl)ccc1NS(=O)(=O)C(F)(F)F` [Compound 142]: the mortality at 1.26 µg/cm2, 1.26 µg/cm2 under setting [2] was determined as 72%. On the same count and under the same terms, to `C/C(=N\Oc1ccc(C(F)(F)F)cc1)c1cc(Cl)ccc1NS(=O)(=O)C(F)(F)F` [Compound 143] belongs 7%. Turning to `C/C(=N\Oc1ccc(F)c(Cl)c1)c1cc(Cl)ccc1NS(=O)(=O)C(F)(F)F` [Compound 144], under setting [2], the mortality at 1.26 µg/cm2, 1.26 µg/cm2 was determined as 15%. For `CC/C(=N\Oc1ccc(C(F)(F)F)cc1)c1cc(Cl)ccc1NS(=O)(=O)C(F)(F)F` [Compound 145], under setting [2], the mortality at 1.26 µg/cm2, 1.26 µg/cm2 was determined as 9%. `CC/C(=N\Oc1ccc(F)c(Cl)c1)c1cc(Cl)ccc1NS(=O)(=O)C(F)(F)F` [Compound 146]: under setting [2], the mortality at 1.26 µg/cm2, 1.26 µg/cm2 was 11%.

In the case of `C/C(=N\Oc1ccc(F)c(F)c1)c1cc(Cl)ccc1NS(=O)(=O)C(F)(F)F` [Compound 147], under setting [2], the mortality at 1.26 µg/cm2, 1.26 µg/cm2 is 4%.

Turning to `CC/C(=N\Oc1ccc(F)c(F)c1)c1cc(Cl)ccc1NS(=O)(=O)C(F)(F)F` [Compound 148], the mortality at 1.26 µg/cm2, 1.26 µg/cm2 under setting [2] stood at 38%. Turning to `C/C(=N\Oc1ccccc1C)c1cc(Cl)ccc1NS(=O)(=O)C(F)(F)F` [Compound 149], under setting [2], the mortality at 1.26 µg/cm2, 1.26 µg/cm2 came to 17%. On the same count and under the same terms, to `CC/C(=N\Oc1ccccc1C)c1cc(Cl)ccc1NS(=O)(=O)C(F)(F)F` [Compound 150] belongs 48%; to `C/C(=N\Oc1ccc(OC(F)(F)F)cc1)c1cc(Cl)ccc1NS(=O)(=O)C(F)(F)F` [Compound 151], 62%. The same measure, in the same setting: in the case of `CC/C(=N\Oc1ccc(OC(F)(F)F)cc1)c1cc(Cl)ccc1NS(=O)(=O)C(F)(F)F` [Compound 152] it was 61%. On to `CC/C(=N\OCC#N)c1cc(Cl)ccc1NS(=O)(=O)C(F)(F)F` [Compound 153], for which the mortality at 1.26 µg/cm2, 1.26 µg/cm2 under setting [2] worked out at 77%.

For `CC/C(=N\OC(C)C)c1cc(Cl)ccc1NS(=O)(=O)C(F)(F)F` [Compound 154], the mortality at 1.26 µg/cm2, 1.26 µg/cm2 under setting [2] came out at 100%. Regarding `C/C(=N\OCC#N)c1cc(Cl)ccc1NS(=O)(=O)C(F)(F)F` [Compound 160], under setting [2], the mortality at 1.26 µg/cm2, 1.26 µg/cm2 amounted to 42%. Still for that read-out and setting: to `O=S(=O)(Nc1ccc(Cl)cc1/C(=N/OC1CCCC1)c1ccccc1)C(F)(F)F` [Compound 162] belongs 14%; to `O=S(=O)(Nc1ccc(Cl)cc1/C(=N/Oc1ccc(Cl)cc1)c1ccccc1)C(F)(F)F` [Compound 164, N-{4-chloro-2-[(4-chlorophenoxyimino)phenylmethyl]phenyl}trifluoromethanesulfonamide], 19%; to `O=S(=O)(Nc1ccc(Cl)cc1/C(=N/Oc1ccc(F)cc1)c1ccccc1)C(F)(F)F` [Compound 165, N-{4-chloro-2-[(4-fluorophenoxyimino)phenylmethyl]phenyl}trifluoromethanesulfonamide], 21%.

With `CCC/C(=N\Oc1ccc(Cl)cc1)c1cc(Cl)ccc1NS(=O)(=O)C(F)(F)F` [Compound 166, N-{4-chloro-2-[1-(4-chlorophenoxyimino)butyl]phenyl}trifluoromethanesulfonamide], the mortality at 1.26 µg/cm2, 1.26 µg/cm2 under setting [2] was 17%. Same read-out and setting: to `O=S(=O)(Nc1ccc(Cl)cc1/C(=N/Oc1ccc(Cl)cc1)C1CCCCC1)C(F)(F)F` [Compound 167] belongs 3%; to `CCC/C(=N\Oc1ccc(F)cc1)c1cc(Cl)ccc1NS(=O)(=O)C(F)(F)F` [Compound 168], 36%; to `O=S(=O)(Nc1ccc(Cl)cc1/C(=N/Oc1ccc(F)cc1)C1CCCCC1)C(F)(F)F` [Compound 169, N-{4-chloro-2-[(4-fluorophenoxyimino)cyclohexylmethyl]phenyl}trifluoromethanesulfonamide], 9%. With `C/C(=N\OCC1CCCCC1)c1cc(Cl)ccc1NS(=O)(=O)C(F)(F)F` [Compound 173], the mortality at 1.26 µg/cm2, 1.26 µg/cm2 under setting [2] was found to be 96%. On the same count and under the same terms, in the case of `CC(C)O/N=C(\c1ccccc1)c1cc(Cl)ccc1NS(=O)(=O)C(F)(F)F` [Compound 176] it was 52%; in that of `O=S(=O)(Nc1ccc(Cl)cc1/C(=N/OC1CCCCC1)c1ccccc1)C(F)(F)F` [Compound 179], 12%; in that of `O=S(=O)(Nc1ccc(Cl)cc1/C(=N/OCC1CCCCC1)c1ccccc1)C(F)(F)F` [Compound 180], 8%. With `CC(C)(C)/C(=N\Oc1ccc(Cl)cc1)c1cc(Cl)ccc1NS(=O)(=O)C(F)(F)F` [Compound 182, N-{4-chloro-2-[1-(4-chlorophenoxyimino)2,2-dimethylpropyl]phenyl}trifluoromethanesulfonamide], the mortality at 1.26 µg/cm2, 1.26 µg/cm2 under setting [2] worked out at 28%. Regarding `CCC/C(=N\OC1CCCCC1)c1cc(Cl)ccc1NS(=O)(=O)C(F)(F)F` [Compound 192], the mortality at 1.26 µg/cm2, 1.26 µg/cm2 stood at 18% (8 h, read-out: C. felis Mortality (%) 8 h, 8 h, Laboratory 2 B data) and 43% under setting [1].
